Measurements as given in patent US20140249105A1, “NOVEL CERAMIDE ANALOGUES, PROCESSES FOR PREPARING SAME AND USES THEREOF” (Diverchim, priority 2011, published 2014).
Several values for one entry are separate records, joined by “and”; a condition that tells them apart may be missing. Identical values can stand only once.

Assays:
Format in all cases: cell-based
[1] = target: T1, tyrosinase (DOPA oxidase) (Homo sapiens, UniProt P14679); assay: Screening of anti-tyrosinase activity: DOPA oxidase reaction on separated epidermis, count of DOPA positive melanocytes per mm2; details: for Variation/control: DOPA positive melanocyte count per mm2 vs DOPA control, product at 30 μg/mL in DMSO; for effectiveness for limiting tyrosinase activity compared with reference compounds: vs ref 1
T1 construct: from tissue; host or cells: separated human epidermis from a frozen abdominoplasty (melanocytes in situ)
T1 sequence (P14679 19-529): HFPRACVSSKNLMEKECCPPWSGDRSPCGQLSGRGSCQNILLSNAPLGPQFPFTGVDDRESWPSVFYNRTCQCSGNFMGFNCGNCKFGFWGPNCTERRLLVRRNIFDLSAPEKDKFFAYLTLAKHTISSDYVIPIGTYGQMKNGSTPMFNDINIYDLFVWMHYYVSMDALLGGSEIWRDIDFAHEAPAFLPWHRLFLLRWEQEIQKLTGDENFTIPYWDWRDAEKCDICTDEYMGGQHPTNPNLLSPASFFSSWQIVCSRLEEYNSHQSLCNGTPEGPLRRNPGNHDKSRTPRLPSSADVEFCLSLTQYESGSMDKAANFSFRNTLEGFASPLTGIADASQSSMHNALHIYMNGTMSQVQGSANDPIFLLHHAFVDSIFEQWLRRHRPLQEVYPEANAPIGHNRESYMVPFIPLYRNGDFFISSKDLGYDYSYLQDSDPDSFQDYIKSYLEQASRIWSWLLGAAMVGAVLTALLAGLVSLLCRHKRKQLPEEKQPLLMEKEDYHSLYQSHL
Protocol: The products are tested in solution at 30 μg/mL in DMSO. Epidermis samples originating from a frozen abdominoplasty (person) were separated by incubation in 2N NaBr for 1.0 h at 37° C. They were then fixed in a buffered formolized fixing agent, rinsed and put in contact with the volume/volume mixture: solutions of L-DOPA/test formulation. After incubation, they were rinsed and mounted between slide and cover slip with mounting liquid of the Aquatex type. Observation was by optical microscopy with ×10 objective. Images were obtained with a tri CCD Sony DXC […] camera and stored using the Leica IM1000 data archiving software. For each batch, several microscope fields were analysed using the LEICA QWin image analysis software. For each field, the DOPA positive melanocytes were counted and the area of the zone was measured to determine the melanocyte count per mm^2.

[2] = system: B16 melanocytes; assay: Screening of anti-melanogenesis activity: melanin assay in B16 melanocytes stimulated with NDP-MSH; details: 72 h; for inhibition at 30 µM / inhibition at 100 µM: Melanocyte, read-out: Normalized data inhibition (%)
Protocol: This was carried out for compounds in solution in DMSO. The synthesis of melanin was measured in a model of B16 melanocytes stimulated with a stable derivative of α-MSH (natural hormone that stimulates melanogenesis: Melanocyte Stimulating Hormone): NDP-MSH ([Nle^4, DPhe7]-α-MSH).
(§1) Melanocytes were seeded on a 96-well plate and cultured for 24 h (37° C., 5% CO2, DMEM 1 g/L glucose without phenol red supplemented with glucose 3 g/L, L-glutamine 2 mM, penicillin 50 U/mL, streptomycin 50 μg/mL, fetal calf serum (FCS) 10%). […] Each experimental condition was carried out with n=3, apart from the controls carried out with n=6. The cells were then incubated for 72 h. Wells without cells received in parallel the same quantities of medium, supplemented or not with NDP-MSH and with or without the test compounds or the reference in order to quantify the background noise associated with the presence of the compounds.
At the end of 72 hours of incubation, the total melanin (intra- and extracellular) was quantified by measuring the absorbance of each sample at 405 nm (direct reading of the culture plates) against a standard range of melanin (melanin concentrations tested from 0.78 to 100 μg/mL). The background noise, measured in the wells without cells, was subtracted from the values measured so that only the effect connected with the production of melanin is taken into account, without including any interference connected with the presence of the compounds. The results were expressed in percentage of melanin relative to the control as well as in percentage inhibition.

[3] = system: B16 melanocytes; assay: Viability of the cells, test of reduction of MTT; details: 72 h
Protocol: as §1
At the end of the treatment, the cells were incubated in the presence of MTT (3-(4,5-dimethylthiazol-2-yl)-2,5-diphenyl tetrazolium bromide), the conversion of which to blue crystals of formazan is proportional to the activity of succinate dehydrogenase (mitochondrial enzyme). After disruption of the cells, the formazan was dissolved in DMSO medium and the optical density (OD), representative of the number of live cells and of their metabolic reactivity, was measured with a microplate reader at 540 nm (VERSAmax, Molecular Devices).

[4] = system: Human dermal fibroblasts aged according to the Hayflick model (P17NHDF); assay: Proliferation of aged human dermal fibroblasts, [3H]-thymidine incorporation; details: 72 hours
Protocol: Thus, stimulation of the proliferation of the aged fibroblasts makes possible a partial reversal of the deleterious effects of ageing. • Biological model: Human dermal fibroblasts aged according to the Hayflick model (fibroblasts obtained by successive subculture) (P17NHDF) • Culture conditions: 37° C., 5% CO2 • Culture medium: DMEM/fetal calf serum (FCS) 10% • Conditions: • Control (n=6) • Control normal fibroblasts, not aged (P7 NHDF) (n=2) • Reference: EGF (Epidermal Growth Factor) at 10 ng/mL (n=2) • compounds tested (n=2) • Incubation: 72 hours • Assay: The effects on proliferation were evaluated by measuring the incorporation of [^3H]-thymidine in fibroblasts aged according to the Hayflick model. The Hayflick model consists of applying successive subcultures in order to induce an “aged” phenotype. The results are expressed in percentage stimulation of the incorporation of [^3H]-thymidine.

[5] = system: Normal human epidermal keratinocytes (NHEK); assay: Proliferation and/or migration of keratinocytes, artificial wound coverage; details: percentage coverage at 48 h
Protocol: The phases of migration and proliferation of cells are major phases of healing that occur after the inflammation phase and are necessary for recolonization of the wound. An increase in the migration and proliferation of cells allows an improvement in healing. • Biological model: Normal human epidermal keratinocytes (NHEK) • Culture conditions: 37° C., 5% CO2 • Culture medium: Keratinocyte-SFM-PE-EGF (keratinocyte culture medium—serum free medium (SFM) without pituitary extract (PE) and without Epidermal Growth Factor (EGF) • Conditions: • Control (n=6) • Reference: EGF (Epidermal Growth Factor) at 10 ng/ml (n=2) • compounds tested (n=2) • Incubation: 72 hours • Assay: Normal human keratinocytes were seeded on 96-well plates suitable for the migration studies. In these plates, the substrates were pretreated with a solution of collagen and a mask was placed at the centre of each well, preventing adhesion of the cells in this zone and thus forming an artificial wound. After labelling the cells with calcein, the masks were removed and then the cells were treated with the compounds or the reference. The migration of the cells was monitored microscopically for 72 hours, taking photographs at 0 h, 24 h, 48 h and 72 h. The results are expressed in percentage coverage and compared with the untreated control.

For O=C(NC1CCC(NC(=O)C(F)=CCCCCCCCCO)C1)C(F)=CCCCCCCCCO (mixture of isomers) [c59], the Variation/control [1] was −56, the “effectiveness for limiting tyrosinase activity compared with reference compounds” value [1] was “more effective than the reference compounds” and the “Normalized data inhibition (%)” value ([2]; 1 μM) was 0%. The “Normalized data inhibition (%)” value ([2]; 3 μM) was 9%, the “Normalized data inhibition (%)” value ([2]; 10 μM) was 38% and the “Normalized data inhibition (%)” value ([2]; 30 μM) was 71%. The “Normalized data inhibition (%)” value ([2]; 100 μM) was 118%, the “Viability (MTT) % stimulated control” value ([3]; 1 μM) was 108 % stimulated control and the “Viability (MTT) % stimulated control” value ([3]; 3 μM) was 90 % stimulated control. The “Viability (MTT) % stimulated control” value ([3]; 10 μM) was 88 % stimulated control, the “Viability (MTT) % stimulated control” value ([3]; 30 μM) was 82 % stimulated control and the “Viability (MTT) % stimulated control” value ([3]; 100 μM) was 2 % stimulated control.
With O=C(/C=C/CCCCCCCCCCCCCCO)N[C@H]1C[C@@H]1NC(=O)/C=C/CCCCCCCCCCCCCCO (relative stereo) [c93] the Variation/control [1] was −48.
Work on O=C(O)/C=C/CCCCCCCCCCCCCCCO [Ref 1, (E)-18-Hydroxy-octadec-2-enoic acid, reference compound] yielded a Variation/control [1] of −16, an inhibition at 30 µM ([2]; 30 μM) of 0% and an inhibition at 100 µM ([2]; 100 μM) of 115%. The “Viability (MTT) % stimulated control” value ([3]; mouse, 30 μM) was 79 % stimulated control and the “Viability (MTT) % stimulated control” value ([3]; mouse, 100 μM) was 63 % stimulated control.
Compound O=C(O)/C=C/CCCCCCCCCCCO [Ref 3, (E)-14-Hydroxy-tetradec-2-enoic acid, reference compound] has a Variation/control [1] of −15.
In the case of O=C(O)C(F)=CCCCCCCCCCCCO [Ref 4, 2-Fluoro-14-hydroxy-tetradec-2-enoic acid, reference compound], the Variation/control [1] is reported as −36, the inhibition at 30 µM ([2]; 30 μM) is reported as 0% and the inhibition at 100 µM ([2]; 100 μM) is reported as 0%. For the same compound, the “Viability (MTT) % stimulated control” value ([3]; 30 μM) was 114 % stimulated control and the “Viability (MTT) % stimulated control” value ([3]; 100 μM) was 95 % stimulated control.
O=C(O)/C=C/CCCCCCCCCCCCO [Ref 5, (E)-15-Hydroxy-pentadec-2-enoic acid, reference compound] was tested, and the Variation/control [1] was −29.
O=C(O)/C=C/CCCCCCCCCO [Ref 6, (E)-12-Hydroxy-dodec-2-enoic acid, reference compound] gave a Variation/control [1] of −24.
In the case of O=C(/C=C/CCCCCCCCCCCO)N[C@H]1C[C@H]1NC(=O)/C=C/CCCCCCCCCCCO [c7], the “Stimulation (%)” value ([4]; 10 μM) is reported as 63%.
With O=C(/C=C/CCCCCCCCCCCO)N[C@H]1CCC[C@H]1NC(=O)/C=C/CCCCCCCCCCCO [c17] the “% control 48 h” value ([5]; 1 μM) was 141 % control.
In the case of O=C(N[C@H]1C[C@H]1NC(=O)C(F)=CCCCCCCCO)C(F)=CCCCCCCCO [c36], the “% control 48 h” value ([5]; 3 μM) is reported as 154 % control.
For O=C(N[C@H]1C[C@H]1NC(=O)/C(F)=C/CCCCCCCCCCCO)/C(F)=C/CCCCCCCCCCCO [c40], the Variation/control [1] was −61, the “effectiveness for limiting tyrosinase activity compared with reference compounds” value [1] was “more effective than the reference compounds” and the “Normalized data inhibition (%)” value ([2]; 10 μM) was −1%. The “Viability (MTT) % stimulated control” value ([3]; 10 μM) was 89 % stimulated control, the “Viability (MTT) % stimulated control” value ([3]; 30 μM) was 85 % stimulated control and 94 % stimulated control and the “Viability (MTT) % stimulated control” value ([3]; 100 μM) was 86 % stimulated control and 94 % stimulated control. The “% control 48 h” value ([5]; 30 μM) was 144 % control.
With O=C(N[C@H]1CCC[C@H]1NC(=O)/C(F)=C/CCCCCCCO)/C(F)=C/CCCCCCCO [c45] the “% control 48 h” value ([5]; 3 μM) was 145 % control.
With O=C(NC1CCCC1NC(=O)C(F)=CCCCCCCCCCCCCCCO)C(F)=CCCCCCCCCCCCCCCO (stereo not shown) [c53] the “% control 48 h” value ([5]; 3 μM) was 137 % control.
In the case of CCCCCCCCCCC/C=C/C(=O)N[C@H]1CCC[C@H]1NC(=O)/C=C/CCCCCCCCCCC [c79], the Variation/control [1] is reported as −45 and the “% control 48 h” value ([5]; 1 μM) is reported as 141 % control.
In the case of CCCCCCCCCCC/C=C(/F)C(=O)N[C@@H]1CC[C@H](NC(=O)/C(F)=C\CCCCCCCCCCC)C1 [c85], the “Stimulation (%)” value ([4]; 10 μM) is reported as 22% and the “% control 48 h” value ([5]; 10 μM) is reported as 176 % control.
Work on CCCCCCCCC=CCCCCCCCC(=O)NC1CCCC1NC(=O)CCCCCCCC=CCCCCCCCC (stereo not shown) [c127] yielded a Variation/control [1] of −45.
O=C(NC1CCC(NC(=O)C(F)=CCCCCCOC2CCCCO2)C1)C(F)=CCCCCCOC1CCCCO1 (stereo not shown) [c149] was tested, and the “Normalized data inhibition (%)” value ([2]; 30 μM) was 108%, the “Normalized data inhibition (%)” value ([2]; 100 μM) was 120% and the “Viability (MTT) % stimulated control” value ([3]; 30 μM) was 87 % stimulated control. The “Viability (MTT) % stimulated control” value ([3]; 100 μM) was 28 % stimulated control.
“(E)-14-tetrahydropyranyloxy-tetradec-2-enoic acid [Ref3, reference compound]” was tested, and the “Normalized data inhibition (%)” value ([2]; 30 μM) was 0%, the “Normalized data inhibition (%)” value ([2]; 100 μM) was 11% and the “Viability (MTT) % stimulated control” value ([3]; 30 μM) was 92 % stimulated control.
EGF: Epidermal Growth Factor, reference was tested, and the “Stimulation (%)” value ([4]; 10 ng/ml) was 89% and the “% control 48 h” value ([5]; 10 ng/mL) was 161 % control.
